From US20190055267A1, “ORGANOTRIFLUOROBORATE MIMICS OF AMINO ACIDS AND USES THEREOF” (The United States of America, as represented by the …, priority 2015, published 2019)
Read-outs that look alike come from different tables or passages of the source.

How the values were obtained:
[1] = COOH group of the corresponding amino acid; cited from earlier work
[2] = Solvolysis of the BF3 moiety in phosphate buffer; type: physicochemical
Text: See also, Liu et al., Chem. Eur. J., 2015, 21:3924-8, incorporated herein by reference in its entirety.

amino acid transporters [3] = experiment: Uptake-concentration kinetics, Michaelis-Menten fitting, in U87MG cells; type: cell-based, human; settings: 60 min at 37° C. in PBS, read-out: KM/μM, ^18F-AA-BF3 (BAA)
Method: The uptake of BAA in U87MG cells was measured at increasing concentrations in phosphate-buffered saline (PBS) and plotted against the concentration of BAA. […] The KM values of ^18F-BAAs were calculated by Michaelis-Menten fitting using Igor Pro 6.22.
The uptake-concentration correlations (FIGS. 12-15) fit well with Michaelis-Menten kinetics, giving the values of Table 4.

U87MG cells = experiment: In vitro competitive inhibition of boramino acid uptake by natural amino acids and transporter inhibitors; settings: for inhibition of uptake by sodium free medium: U87MG cells
Method: The U87MG cells were in Dulbecco modified Eagle medium and Minimum Essential Medium under a humidified atmosphere with 5% CO2 at 37° C. The culture media was supplemented with 10% fetal bovine serum, 100 U/mL penicillin, and 100 μg/mL streptomycin. […] Prior to incubation, the cells were washed with phosphate-buffered saline (PBS). […] The cells were then washed 3 times with ice-cold PBS, quenched with 0.1 M of NaOH and the cell-bound radioactivity was counted using a gamma counter. Uptake is defined as percentage of added radioactive dose (% AD).
The control is incubation with BAA only without competitor.

HEK293 cells = experiment: Cell uptake of 18F-Leu-BF3 in HEK293 cells; type: cell-based; settings: 120 min post incubation
UM22B xenograft = experiment: PET imaging and biodistribution in UM22B tumor-bearing mice; type: in vivo; settings: for bone uptake: PET, tumor-bearing mice; for Average Uptake (% ID/g), blood pool / Average Uptake (% ID/g), hottest voxel cluster of tumor / Average Uptake (% ID/g), kidney / Average Uptake (% ID/g), liver / Average Uptake (% ID/g), muscle / Average Uptake (% ID/g), whole tumor region of interest: UM22B-bearing mice, 120 min after injection
Method: All imaging studies were performed as follows. PET scans were obtained and image analysis were performed using an Inveon small-animal PET scanner (Malvern, Pa., USA). About 3.7 MBq of ^18F-AA were administered via tail vein injection under isoflurane anesthesia. […] For dynamic acquisition, 60 min dynamic PET scans were acquired, followed by a late-time-point scans at 2 h after tracer injection. With the acute inflammation model, 10-min static PET images were acquired at 1 h and 2 h after injection. The images were reconstructed using a 3-dimensional ordered subset expectation maximum algorithm, and no correction was applied for attenuation or scatter. For each scan, regions of interest (ROIs) were drawn using vendor software (ASI Pro 5.2.4.0; Siemens Medical Solutions) on decay-corrected whole-body coronal images. The radioactivity concentrations (accumulation) within the tumor, heart, muscle, liver, brain, and kidneys were obtained from mean pixel values within the multiple ROI volumes and then converted to megabecquerel per milliliter. These values were then divided by the administered activity to obtain (assuming a tissue density of 1 g/mL) an image-ROI-derived percentage injected dose per gram (% ID/g).

UM22B xenografts [4] = experiment: PET imaging of 18F-Leu-BF3 co-injected with unlabeled Leu-BF3 (BNCT boron delivery); type: in vivo, mice
Method: All imaging studies were performed as follows. PET scans were obtained and image analysis were performed using an Inveon small-animal PET scanner (Malvern, Pa., USA). About 3.7 MBq of ^18F-AA were administered via tail vein injection under isoflurane anesthesia. For static acquisition, 10-min static PET scans were acquired at 30, 60 and 120 min after injection. For dynamic acquisition, 60 min dynamic PET scans were acquired, followed by a late-time-point scans at 2 h after tracer injection. With the acute inflammation model, 10-min static PET images were acquired at 1 h and 2 h after injection. The images were reconstructed using a 3-dimensional ordered subset expectation maximum algorithm, and no correction was applied for attenuation or scatter. For each scan, regions of interest (ROIs) were drawn using vendor software (ASI Pro 5.2.4.0; Siemens Medical Solutions) on decay-corrected whole-body coronal images. The radioactivity concentrations (accumulation) within the tumor, heart, muscle, liver, brain, and kidneys were obtained from mean pixel values within the multiple ROI volumes and then converted to megabecquerel per milliliter. These values were then divided by the administered activity to obtain (assuming a tissue density of 1 g/mL) an image-ROI-derived percentage injected dose per gram (% ID/g). […]

[5] = In vivo metabolic stability, HPLC analysis of urine and blood samples; settings: living animals
Method: To further evaluate its in vivo metabolic stability, ^18F-Leu-BF3 was also tested in living animals and followed by HPLC analysis of urine and blood samples.

UM22B cells = experiment: Efflux of radioactivity from cells preloaded with 18F-Leu-BF3; type: cell-based; settings: UM22B cells loaded 120 min, 120 min post medium incubation
Method: ^18F-Leu-BF3 was first incubated with UM22B cells in PBS (phosphate buffered saline) for 120 min then was removed, followed by rapidly rinsing the cells with PBS three times. The cancer cells were incubated in medium essential medium for 10, 30, 60, and 120 min, and the residual radioactivity was measured (FIG. 16). The decreasing residual radioactivity is time-dependent, and most of the radioactive boramino acid was excreted from the cell in 90 min (less than 2% left at 120 min post medium incubation).
The radioactivity from efflux was further analyzed by re-injection into HPLC at 120 min (efflux: excreted from cell; influx: accumulated into cell). Only one peak was observed, and the elution time was corroborative to that for ^18F-Leu-BF3. The elution time here was 15 min, whereas in FIG. 1 the time was 12.5 min. After the data of FIG. 1 was obtained, maintenance was performed on the HPLC, after which the elution time of ^18F-Leu-BF3 on the HPLC was 15 min.

U87MG human glioma cells = type: cell-based
[6] = Metabolic stability in mouse plasma, HPLC analysis; type: in vitro ADME; settings: mouse plasma at 37° C. for 30 and 120 min
Method: To further evaluate the metabolic stability of boramino acid, ^18F-Leu-BF3 was incubated with mouse plasma at 37° C. for 30 and 120 min. After incubation, most of the radioactivity was extracted from the plasma and followed by HPLC analysis.

inflammatory lesion = experiment: PET imaging in the acute inflammation model; type: in vivo, mice; settings: compared with 18F-FDG (FIGS. 26-28)
Method: All imaging studies were performed as follows. PET scans were obtained and image analysis were performed using an Inveon small-animal PET scanner (Malvern, Pa., USA). About 3.7 MBq of ^18F-AA were administered via tail vein injection under isoflurane anesthesia. For static acquisition, 10-min static PET scans were acquired at 30, 60 and 120 min after injection. For dynamic acquisition, 60 min dynamic PET scans were acquired, followed by a late-time-point scans at 2 h after tracer injection. With the acute inflammation model, 10-min static PET images were acquired at 1 h and 2 h after injection. The images were reconstructed using a 3-dimensional ordered subset expectation maximum algorithm, and no correction was applied for attenuation or scatter. For each scan, regions of interest (ROIs) were drawn using vendor software (ASI Pro 5.2.4.0; Siemens Medical Solutions) on decay-corrected whole-body coronal images. The radioactivity concentrations (accumulation) within the tumor, heart, muscle, liver, brain, and kidneys were obtained from mean pixel values within the multiple ROI volumes and then converted to megabecquerel per milliliter. These values were then divided by the administered activity to obtain (assuming a tissue density of 1 g/mL) an image-ROI-derived percentage injected dose per gram (% ID/g).

UM22B xenografts [7] = experiment: ICP analysis of boron in tissues after injection; type: in vivo, mice; settings: 60 min after injection of 10 mg
Method: Tumor-bearing mice were sacrificed at 60 min after injection of 10 mg of Leu-BF3. UM22B xenografts are dissolve into nitric acid and the resulting solution are analyzed by ICP.

system P transporters = settings: read-out: KM value, cited from earlier work
amino acid transporters [8] = settings: natural amino acid, comparison value; read-out: KM/μM, AA; cited from earlier work
[9] = time-activity curves, UM22B tumor-bearing mice (FIGS. 21 and 22)

F[B-](F)(F)[C@@H]1CCC[NH2+]1 [Pro-BF3]
pka of corres. COOH [1]: 1.95 | t1/2/min ([2]; half-life in phosphate buffer at pH 7.4): 210.58 h | pKB-F ([2]; pK of the first fluorine of the BF3− moiety): 4.2615 | k (solv)/min^−1 ([2]; rate of solvolysis, phosphate buffer pH 7.4): 5.476e-05 min⁻¹

C[C@H]([NH3+])[B-](F)(F)F [^18F-Ala-BF3]
Km (amino acid transporters [3]): 468 ± 87.2 µM

C[C@H]([NH3+])[B-](F)(F)[18F] [^18F-Ala-BF3]
inhibition of uptake by sodium free medium (U87MG cells; 18F-Ala-BF3, 60 min incubation): 91.1%

CC(C)C[C@H]([NH3+])[B-](F)(F)F [^18F-Leu-BF3]
Km (amino acid transporters [3]): 25.9 ± 2.4 µM

CC(C)C[C@H]([NH3+])[B-](F)(F)[18F] [^18F-Leu-BF3]
cell uptake (HEK293 cells): 10.4 % AD | bone uptake (UM22B xenograft): undetectable | Average Uptake (% ID/g), blood pool (UM22B xenograft): 0.47 ± 0.12 % ID/g | Average Uptake (% ID/g), hottest voxel cluster of tumor (UM22B xenograft): 12.46 ± 3.0 % ID/g | Average Uptake (% ID/g), kidney (UM22B xenograft): 2.32 ± 0.39 % ID/g | Average Uptake (% ID/g), liver (UM22B xenograft): 0.83 ± 0.16 % ID/g | Average Uptake (% ID/g), muscle (UM22B xenograft): 0.09 ± 0.03 % ID/g | Average Uptake (% ID/g), whole tumor region of interest (UM22B xenograft): 6.72 ± 0.91 % ID/g | tumor uptake, peak voxel cluster value (UM22B xenograft; comparison of 11C-Leu and 18F-Leu-BF3, one particular mouse (FIGS. 24 and 25)): ~6.5 % ID/g | tumor uptake, peak voxel cluster value (UM22B xenograft; [9]): ~13 % ID/g | tumor uptake (UM22B xenografts [4]; 60 min after injection of <1 μg, 200 μg, 1 mg, 5 mg and 25 mg, by PET imaging): ~10 % ID/g | boron concentration in tumor (UM22B xenografts [4]; 60 min post-injection, based on calculation): up to 30 ppm | in vivo metabolic stability [5]: neither participates in protein synthesis nor loses fluoride during in vivo circulation | residual radioactivity left in cells (UM22B cells): less than 2% | cell uptake (U87MG human glioma cells): ~7.5 % AD | defluoridation from boramino acid to boronic acid [6]: almost negligible | uptake in inflammatory lesion (inflammatory lesion): almost negligible | boron in tumor (UM22B xenografts [7]; ICP analysis): 34.5 ppm | tumor-to-brain ratio (UM22B xenografts [7]; boron by ICP analysis): 13.5

[NH3+][C@@H](Cc1ccccc1)[B-](F)(F)F [^18F-Phe-BF3]
Km (amino acid transporters [3]): 17.6 ± 4.2 µM

[NH3+][C@@H](Cc1ccccc1)[B-](F)(F)[18F] [^18F-Phe-BF3]
bone uptake (UM22B xenograft): undetectable | Average Uptake (% ID/g), blood pool (UM22B xenograft): 2.46 ± 0.50 % ID/g | Average Uptake (% ID/g), hottest voxel cluster of tumor (UM22B xenograft): 13.29 ± 1.18 % ID/g | Average Uptake (% ID/g), kidney (UM22B xenograft): 2.13 ± 0.34 % ID/g | Average Uptake (% ID/g), liver (UM22B xenograft): 2.67 ± 0.44 % ID/g | Average Uptake (% ID/g), muscle (UM22B xenograft): 2.31 ± 0.44 % ID/g | Average Uptake (% ID/g), whole tumor region of interest (UM22B xenograft): 7.31 ± 0.78 % ID/g | tumor uptake, peak voxel cluster value (UM22B xenograft; [9]): approximately 15 % ID/g

F[B-](F)(F)[C@@H]1CCC[NH2+]1 [^18F-Pro-BF3]
Km (amino acid transporters [3]): 65.6 ± 45.2 µM

F[B-](F)([18F])[C@@H]1CCC[NH2+]1 [^18F-Pro-BF3]
inhibition of uptake by sodium free medium (U87MG cells; 18F-Pro-BF3, 60 min incubation): 76.2%

O=C(O)[C@@H]1CCCN1 [proline]
inhibition at 25000 µM (U87MG cells; Homo sapiens, U-87 MG, 1 h, read-out: inhibition of uptake of 18F-Pro-BF3): ~80% | Km (system P transporters; system P transporter with high KM): ~5000 µM | Km (system P transporters; system P transporter with low KM): ~100 µM | Km (amino acid transporters [8]): 67 ± 11.5 µM

^18F-fluorodeoxyglucose [^18F-FDG, reference compound]
cell uptake (U87MG human glioma cells): less than 5 % AD
